Data as given in patent US20220281848A1, “PYRAZOLE-SUBSTITUTED PYRROLIDINONES AS HERBICIDES” (FMC Corporation, priority 2019, published 2022).

System: plants
Test: Test D pre-emergence, other plants of Tables D1 and D3
Format: in vivo
Conditions: for damage to plant, ALOMY / damage to plant, AVEFA / damage to plant, BEAVA / damage to plant, BROTE / damage to plant, BRSNN / damage to plant, CHEAL / damage to plant, GALAP / damage to plant, HORVW / damage to plant, KCHSC / damage to plant, LOLPE / damage to plant, POAAN / damage to plant, POLCO / damage to plant, SINAR / damage to plant, STEME / damage to plant, VERPE: pre-emergence, 100=total damage, 0=no damage
Procedure, shortened: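 Seeds treated with herbicide safener; sown in soil; glasshouse, 16 h light, 65% humidity. Sprayed day 1 (pre) or ~day 12 (post). Spray in 0.2% v/v adjuvant. Scored 0–100 damage: 20 DAA pre, 15 d post.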

## CN1CC(c2cc(C(F)(F)F)n(C)n2)C(C(=O)Nc2ccc(F)c(F)c2F)C1=O (racemic) [Compound 17]
SORVU, preemergent, rate 500, 20 DAA
  damage to plant (100=total damage to plant; 0=no damage to plant), SORVU: 0
Rate 15, 20 DAA
  damage to plant, ALOMY: 0
  damage to plant, AVEFA: 0
  damage to plant, BEAVA: 0
  damage to plant, BROTE: 0
  damage to plant, BRSNN: 0
  damage to plant, CHEAL: 0
  damage to plant, GALAP: 0
  damage to plant, HORVW: 0
  damage to plant, KCHSC: 0
  damage to plant, LOLPE: 0
  damage to plant, POAAN: 0
  damage to plant, POLCO: 0
  damage to plant, SINAR: 0
  damage to plant, STEME: 0
  damage to plant, VERPE: 0
Rate 30, 20 DAA
  damage to plant, ALOMY: 0
  damage to plant, AVEFA: 0
  damage to plant, BEAVA: 0
  damage to plant, BROTE: 0
  damage to plant, BRSNN: 0
  damage to plant, CHEAL: 0
  damage to plant, GALAP: 0
  damage to plant, HORVW: 0
  damage to plant, KCHSC: 0
  damage to plant, LOLPE: 0
  damage to plant, POAAN: 20
  damage to plant, POLCO: 0
  damage to plant, SINAR: 0
  damage to plant, STEME: 0
  damage to plant, VERPE: 0
Rate 60, 20 DAA
  damage to plant, ALOMY: 0
  damage to plant, AVEFA: 0
  damage to plant, BEAVA: 0
  damage to plant, BROTE: 0
  damage to plant, BRSNN: 0
  damage to plant, GALAP: 0
  damage to plant, HORVW: 0
  damage to plant, KCHSC: 0
  damage to plant, LOLPE: 20
  damage to plant, POAAN: 30
  damage to plant, POLCO: 0
  damage to plant, SINAR: 0
  damage to plant, STEME: 0
  damage to plant, VERPE: 0
Rate 130, 20 DAA
  damage to plant, ALOMY: 50
  damage to plant, AVEFA: 60
  damage to plant, BEAVA: 0
  damage to plant, BROTE: 0
  damage to plant, BRSNN: 0
  damage to plant, CHEAL: 50
  damage to plant, GALAP: 0
  damage to plant, HORVW: 10
  damage to plant, KCHSC: 0
  damage to plant, LOLPE: 40
  damage to plant, POAAN: 70
  damage to plant, POLCO: 0
  damage to plant, SINAR: 0
  damage to plant, STEME: 10
  damage to plant, VERPE: 30
Rate 250, 20 DAA
  damage to plant, ALOMY: 60
  damage to plant, AVEFA: 70
  damage to plant, BEAVA: 0
  damage to plant, BROTE: 40
  damage to plant, BRSNN: 0
  damage to plant, CHEAL: 60
  damage to plant, GALAP: 0
  damage to plant, HORVW: 40
  damage to plant, KCHSC: 10
  damage to plant, LOLPE: 80
  damage to plant, POAAN: 80
  damage to plant, POLCO: 20
  damage to plant, SINAR: 0
  damage to plant, STEME: 30
  damage to plant, VERPE: 60
Rate 500, 20 DAA
  damage to plant, ALOMY: 80
  damage to plant, AVEFA: 80
  damage to plant, BEAVA: 10
  damage to plant, BROTE: 60
  damage to plant, BRSNN: 20
  damage to plant, CHEAL: 70
  damage to plant, GALAP: 20
  damage to plant, HORVW: 90
  damage to plant, KCHSC: 30
  damage to plant, LOLPE: 80
  damage to plant, POAAN: 90
  damage to plant, POLCO: 30
  damage to plant, SINAR: 0
  damage to plant, STEME: 60
  damage to plant, VERPE: 90
